Results published in US10329270B2, “Heteroaryl compounds as BTK inhibitors and uses thereof” (Merck Patent GmbH, priority 2013, dated 2019).
pIC50: −log10 of the molar value.

Assays:
[1] = test system: PBMC; experiment: Assay B: Time Dependent PMBC IC50 Assay; format: cell-based
Description: Assay B: Time Dependent PMBC IC50 Assay
Compounds described by embodiments of the present invention were assayed using a time dependent PMBC assay. The data from the same is recorded in Table 2 within the column labeled: “Time Dependent PBMC Assay IC50.” These IC50 values are reported in ranges wherein: I<1 uM and II>1 uM.

[2] = biological target: T1, full-length human BTK (Homo sapiens, UniProt Q06187); experiment: Assay A: BTK IC50 Enzyme Assay (microfluidic off-chip mobility shift kinase assay); format: biochemical; details: full-length human BTK, kinKDR peptide substrate, incubated 90 min at 27 C; read-out: Assay A (Time Dependent BTK Enzyme Assay IC50)
T1 construct: 2.5× stocks of full-length human BTK (08-080); purchased CarnaBio USA, Inc., Natick, Mass; 08-080
Procedure, shortened: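 Off-chip microfluidic mobility shift assay with full-length human BTK; phosphorylated and unphosphorylated peptide substrate were separated by charge/mass on a LabChip 3000.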

[3] = biological target: T2, BTK in human whole blood (Homo sapiens, UniProt Q06187); experiment: Assay C: Time Dependent Human Whole Blood IC50 Assay; format: cell-based; details: read-out: Assay C (Time Dependent Human Whole Blood BTK Enzyme Assay IC50)
T2 construct: endogenous in cells; host or cells: human whole blood
Description: Assay C: Time Dependent Human Whole Blood IC50 Assay
Compounds described by embodiments of the present invention were assayed using a human whole blood assay. The data from the same is recorded in Table 2 within the column labeled: “Time Dependent Human Whole Blood BTK Enzyme Assay IC50”.

T2 sequence (Q06187 whole entry): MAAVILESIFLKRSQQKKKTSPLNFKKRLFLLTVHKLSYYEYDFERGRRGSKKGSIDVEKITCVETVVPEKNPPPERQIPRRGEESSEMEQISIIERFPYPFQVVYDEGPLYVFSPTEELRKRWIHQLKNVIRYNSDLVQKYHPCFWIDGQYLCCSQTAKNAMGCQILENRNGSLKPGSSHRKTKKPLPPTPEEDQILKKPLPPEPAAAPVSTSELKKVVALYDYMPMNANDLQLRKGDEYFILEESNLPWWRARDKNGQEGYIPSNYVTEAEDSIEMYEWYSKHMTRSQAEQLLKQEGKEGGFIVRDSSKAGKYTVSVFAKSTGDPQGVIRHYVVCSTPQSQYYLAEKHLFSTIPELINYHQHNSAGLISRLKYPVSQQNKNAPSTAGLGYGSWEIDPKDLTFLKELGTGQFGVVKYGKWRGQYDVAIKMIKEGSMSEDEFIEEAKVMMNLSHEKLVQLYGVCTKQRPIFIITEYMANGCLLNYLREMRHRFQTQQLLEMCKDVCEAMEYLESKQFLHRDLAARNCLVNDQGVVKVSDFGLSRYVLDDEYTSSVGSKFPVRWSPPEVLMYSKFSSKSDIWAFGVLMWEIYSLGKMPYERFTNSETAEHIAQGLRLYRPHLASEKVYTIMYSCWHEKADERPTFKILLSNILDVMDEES
T1 sequence (Q06187 whole entry): as above

Structure (SMILES) | pIC50 [1] | pIC50 [2] | pIC50 [3]
C=CC(=O)N[C@H]1CCN(c2nc(Nc3ccc(C(=O)NC(C)(C)C)cc3)c(F)cc2C(N)=O)C1 [Compound 3, (S)-2-(3-acrylamidopyrrolidin-1-yl)-6-((4-(tert-butylcarbamoyl)phenyl)amino)-5-fluoronicotinamide] | > 7.00 | > 7.00 | > 7.00
C=CC(=O)N[C@H]1CCN(c2nc(Nc3ccc(N4CCC(F)(F)CC4)cc3)c(C(N)=O)cc2F)C1 [Compound 180, 6-((S)-3-Acryloylamino-pyrrolidin-1-yl)-2-[4-(4,4-difluoro-piperidin-1-yl)-phenylamino]-5-fluoro-nicotinamide] | > 7.00 | > 7.00 | 6.00 to 7.00
C=CC(=O)N[C@H]1CCN(c2ccc(C(N)=O)c(Nc3ccc(OC)cc3)n2)C1 [Compound 45, 6-((S)-3-Acryloylamino-pyrrolidin-1-yl)-2-(4-methoxy-phenylamino)-nicotinamide] | – | > 7.00 | 6.00 to 7.00
C=CC(=O)N[C@H]1CCN(c2ccc(C(N)=O)c(Nc3ccc(N4C[C@@H](C)O[C@@H](C)C4)nc3)n2)C1 [Compound 37, 6-((S)-3-Acryloylamino-pyrrolidin-1-yl)-2-[6-(cis-2,6-dimethyl-morpholin-4-yl)-pyridin-3-ylamino]-nicotinamide] | > 7.00 | > 7.00 | 6.00 to 7.00
C=CC(=O)N1C2C=C(c3ccc(C(N)=O)c(Oc4ccc(Oc5ccccc5)cc4)n3)CC1CC2 (centres unmarked) [Compound 65, 6-(8-Acryloyl-8-aza-bicyclo[3.2.1]oct-2-en-3-yl)-2-(4-phenoxy-phenoxy)-nicotinamide] | > 7.00 | > 7.00 | 6.00 to 7.00
C=CC(=O)N[C@H]1CCN(c2ccc(C(N)=O)c(Nc3ccc(C(=O)N4CCN(C)CC4)cc3)n2)C1 [Compound 11, (S)-6-(3-acrylamidopyrrolidin-1-yl)-2-((4-(4-methylpiperazine-1 carbonyl)phenyl)amino)nicotinamide] | > 7.00 | > 7.00 | 6.00 to 7.00
C=CC(=O)N[C@H]1CCN(c2ncc(C(N)=O)c(Nc3ccc(C(=O)NC(C)(C)C)cc3)n2)C1 [Compound 139, (S)-2-(3-acrylamidopyrrolidin-1-yl)-4-((4-(tert-butylcarbamoyl)phenyl)amino)pyrimidine-5-carboxamide] | > 7.00 | > 7.00 | > 7.00
C=CC(=O)N[C@H]1CCN(c2ccc(C(N)=O)c(Nc3ccc(N4CCOCC4)nc3)n2)C1 [Compound 38, 6-((S)-3-Acryloylamino-pyrrolidin-1-yl)-2-(6-morpholin-4-yl-pyridin-3-ylamino)-nicotinamide] | 6.00 to 7.00 | > 7.00 | –
C=CC(=O)N1CCN(c2ccc(C(N)=O)c(Nc3ccc(CCN4CCCC4)cc3)n2)CC1 [Compound 12, 6-(4-Acryloyl-piperazin-1-yl)-2-[4-(2-pyrrolidin-1-yl-ethyl)-phenylamino]-nicotinamide] | > 7.00 | > 7.00 | –
C=CC(=O)N1CCC2(CCN(c3ccc(C(N)=O)c(Nc4ccc(CCN5CCCC5)cc4)n3)C2)C1 (centres unmarked) [Compound 20, 6-(7-Acryloyl-2,7-diaza-spiro[4.4]non-2-yl)-2-[4-(2-pyrrolidin-1-yl-ethyl)-phenylamino]-nicotinamide] | > 7.00 | > 7.00 | –
C=CC(=O)N1CCC(c2ccc(C(N)=O)c(Nc3ccc(CCN4CCCC4)cc3)n2)CC1 [Compound 18, 1′-Acryloyl-6-[4-(2-pyrrolidin-1-yl-ethyl)-phenylamino]-1′,2′,3′,4′,5′,6′-hexahydro-[2,4′]bipyridinyl-5-carboxylic acid amide] | > 7.00 | > 7.00 | –
C=CC(=O)NC1CN(c2ncc(C(N)=O)c(Oc3ccc(Oc4ccccc4)cc3)n2)C1 [Compound 174, 2-(3-Acryloylamino-azetidin-1-yl)-4-(4-phenoxy-phenoxy)-pyrimidine-5-carboxylic acid amide] | > 7.00 | > 7.00 | 6.00 to 7.00
C=CC(=O)N1CC=C(c2ccc(C(N)=O)c(Oc3ccc(Oc4ccccc4)cc3)n2)CC1 [Compound 69, 1′-acryloyl-6-(4-phenoxyphenoxy)-1′,2′,3′,6′-tetrahydro-[2,4′-bipyridine]-5-carboxamide] | > 7.00 | > 7.00 | 6.00 to 7.00
C=CC(=O)N[C@H]1CCN(c2nc(Nc3ccc(CCN4CCCC4)cc3)c(C(N)=O)cc2F)C1 [Compound 179, 6-((S)-3-Acryloylamino-pyrrolidin-1-yl)-5-fluoro-2-[4-(2-pyrrolidin-1-yl-ethyl)-phenylamino]-nicotinamide] | > 7.00 | > 7.00 | –
C=CC(=O)N[C@H]1CCN(c2ccc(C(N)=O)c(Nc3ccc(F)nc3)n2)C1 [Compound 46, 6-((S)-3-Acryloylamino-pyrrolidin-1-yl)-2-(6-fluoro-pyridin-3-ylamino)-nicotinamide] | > 7.00 | > 7.00 | 5.30 to 6.00
C=CC(=O)N[C@H]1CCN(c2cc(Nc3ccc(C(=O)N4CCOCC4)cc3)c(C(N)=O)cn2)C1 [Compound 108, 6-((S)-3-Acryloylamino-pyrrolidin-1-yl)-4-[4-(morpholine-4-carbonyl)-phenylamino]-nicotinamide] | 6.00 to 7.00 | > 7.00 | –
C=CC(=O)N1C[C@@H]2C[C@H]1CN2c1ccc(C(N)=O)c(Nc2ccc(CCN3CCCC3)cc2)n1 [Compound 9, 6-((1S,4S)-5-Acryloyl-2,5-diaza-bicyclo[2.2.1]hept-2-yl)-2-[4-(2-pyrrolidin-1-yl-ethyl)-phenylamino]-nicotinamide] | > 7.00 | > 7.00 | > 7.00
